Results on six compounds are retold here after patent publication US20240342292A1, “Compounds for the Degradation of EGFR Kinase” (BeiGene Switzerland GmbH, priority 2021, published 2024).

The test addresses T1, L858R/T790M/C797S EGFR (Homo sapiens, UniProt P00533, C797S/L858R/T790M).
T1 construct: expressed in transfected cells; host or cells: H1975 clone #25 (lentiviral over-expression, endogenous EGFR knocked out by sgRNA)
The experiment in a line: EGFR degradation HTRF assay in H1975-clone #25 (LTC) cells. The following applies: 16h treatment; for DC50: H1975 # 25-LTC (L858R/T790M/C797S), HTRF; for Dmax: NCI-H1975, H1975 # 25-LTC (L858R/T790M/C797S), maximum percentage of degradation. The class given is cell-based. An excerpt: H1975-clone #28(Del19/T790M/C797S, or abbr: DTC), H1975-clone #23(Del19/C797S, or abbr: DC), H1975-clone #25(L858R/T790M/C797S, or abbr: LTC) and H1975-clone #8 (L858R/C797S, or abbr: LC). EGFR-Del19:T790M/C797S, EGFR-Del19/C797S, EGFR-L858R/T790M/C797S and EGFR-L858R/C797S were stably expressed in H1975 cell lines by lentivirus-mediated over-expression, respectively. The EGFR over-expressed cells then underwent knockout, in which the EGFR targeting sgRNA was designed to only target the endogenous EGFR copies and preserve the exogenous EGFR copies. Followed by the knockout, the edited H1975 cells were seeded in 96 well plates at the concentration of […], cultured for about 2 weeks to allow single clones formation. The formed clones were screened by DNA sequencing and whole exon sequencing analysis for the desired edition. H1975-clone #28, H1975-clone #23, H1975-clone #25 and H1975-clone #8 were finally confirmed as homozygous Del19/T790M/C797S EGFR, Dell9/C797S EGFR, L858R/T790M/C797S EGFR and L858R/C797S EGFR clones, respectively.
H1975-#25, H1975-#28, H1975-#23 and H1975-#8 cells are treated with compounds diluted in 0.2% DMSO cell culture medium on day 2, incubate for 16h, 37° C., 5% CO2. the final concentration of compounds in all assay is start with 10 uM, 5-fold dilution, total 8 doses were included.
After 16h treatment, add HTRF lysis buffer to each well; seal the plate and incubate 1 hour at room temperature on a plate shaker; Once the cells are lysed, 16 μL of cell lysate are transferred to a PE 384-well HTRF detection plate; 4 μL of pre-mixed HTRF antibodies are added to each well; Cover the plate with a plate sealer, spin 1000 rpm for 1 min, Incubate overnight at room temperature; Read on BMG PheraStar with HTRF protocol (337 nm-665 nm-620 nm).
The IC50 (DC50) value of a compound can be obtained by fitting the following equation
Y=Bottom+(TOP−Bottom)/(1+((IC50/X)^hillslope))
Wherein, X and Y are known values, and IC50, Hillslope, Top and Bottom are the parameters obtained by fitting with software. Y is the inhibition percentage (calculated from the equation), X is the concentration of the compound: IC50 is the concentration of the compound when the 50% inhibition is reached. The smaller the IC50 value is, the stronger the inhibitory ability of the compound is. Vice versa, the higher the IC50 value is, the weaker the ability the inhibitory ability of the compound is: Hillslope represents the slope of the fitted curve, generally around 1*; Bottom represents the minimum value of the curve obtained by data fitting, which is generally 0%±20%; Top represents the maximum value of the curve obtained by data fitting, which is generally 100%±20%. The experimental data were fitted by calculating and analyzing with Dotmatics data analysis software.

T1 sequence (P00533 25-1210 T790M/C797S/L858R): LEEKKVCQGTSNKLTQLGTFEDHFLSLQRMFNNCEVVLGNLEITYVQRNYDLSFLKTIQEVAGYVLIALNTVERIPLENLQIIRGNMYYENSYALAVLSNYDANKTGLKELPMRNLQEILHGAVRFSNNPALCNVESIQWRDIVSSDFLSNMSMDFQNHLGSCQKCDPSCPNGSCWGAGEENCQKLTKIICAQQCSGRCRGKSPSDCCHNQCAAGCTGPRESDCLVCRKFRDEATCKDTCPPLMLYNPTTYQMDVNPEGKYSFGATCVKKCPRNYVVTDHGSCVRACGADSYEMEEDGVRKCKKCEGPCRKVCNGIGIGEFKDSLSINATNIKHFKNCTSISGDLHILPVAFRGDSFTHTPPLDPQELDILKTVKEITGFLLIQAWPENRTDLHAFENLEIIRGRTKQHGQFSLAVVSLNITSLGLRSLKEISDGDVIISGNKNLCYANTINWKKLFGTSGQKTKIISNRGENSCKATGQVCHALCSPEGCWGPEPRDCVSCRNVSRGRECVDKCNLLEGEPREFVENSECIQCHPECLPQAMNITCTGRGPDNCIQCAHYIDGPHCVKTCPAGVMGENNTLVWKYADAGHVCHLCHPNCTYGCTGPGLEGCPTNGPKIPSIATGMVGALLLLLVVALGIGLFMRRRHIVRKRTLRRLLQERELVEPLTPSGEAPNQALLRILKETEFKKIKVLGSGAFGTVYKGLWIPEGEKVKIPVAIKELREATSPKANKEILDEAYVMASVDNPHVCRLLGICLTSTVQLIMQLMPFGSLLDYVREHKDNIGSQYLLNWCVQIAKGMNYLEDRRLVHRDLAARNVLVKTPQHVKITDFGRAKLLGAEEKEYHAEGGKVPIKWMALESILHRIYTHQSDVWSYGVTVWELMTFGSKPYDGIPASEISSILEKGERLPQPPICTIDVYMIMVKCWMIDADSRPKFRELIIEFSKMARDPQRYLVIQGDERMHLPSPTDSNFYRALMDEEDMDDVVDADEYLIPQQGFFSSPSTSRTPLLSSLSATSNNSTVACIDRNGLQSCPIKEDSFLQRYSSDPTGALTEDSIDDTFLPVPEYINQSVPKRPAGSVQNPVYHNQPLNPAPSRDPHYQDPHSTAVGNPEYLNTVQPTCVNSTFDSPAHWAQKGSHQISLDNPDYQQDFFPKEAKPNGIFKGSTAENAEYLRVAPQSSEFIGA

For the compound `Cc1cc2cc(n1)-c1cnn(C)c1OCCC[C@@H](C)CN1/C(=N/C2=O)Nc2ccc(CN3CCN(CCc4cc(F)c([C@H]5CCC(=O)NC5=O)c(F)c4)[C@H](C)C3)cc21` [Example 107, (R)-3-(2,6-difluoro-4-(2-((R)-2-methyl-4-(((R,E)-1^1,2^6,7-trimethyl-3-oxo-5^2,5^3-dihydro-1^1H,5^1H-11-oxa-4-aza-5(2,1)-benzo[d]imidazola-2(2,4)-pyridina-1(4,5)-pyrazolacycloundecaphane-5^6-yl)methyl)piperazin-1-yl)ethyl)phenyl)piperidine-2,6-dione], the 50% degradation concentration (DC50) came to 0.6 nM and the Dmax turned out to be 82.5%.

In turn, `Cc1cc2cc(n1)-c1cnn(C)c1OCCC[C@@H](C)CN1/C(=N/C2=O)Nc2ccc(CN3CCC4(CC3)CCN(CC3CCN(c5ccc6c(c5)CN(C5CCC(=O)NC5=O)C6=O)CC3)CC4)cc21` (stereo partly drawn) [Example 21, 3-(1-oxo-5-(4-((9-(((R,E)-1^1,2^6,7-trimethyl-3-oxo-5^2,5^3-dihydro-1^1H,5^1H-11-oxa-4-aza-5(2,1)-benzo[d]imidazola-2(2,4)-pyridina-1(4,5)-pyrazolacycloundecaphane-5^6-yl)methyl)-3,9-diazaspiro[5.5]undecan-3-yl)methyl)piperidin-1-yl)isoindolin-2-yl)piperidine-2,6-dione] registered a DC50 of 2.7 nM and a maximal degradation (Dmax) of 77.8%.

`Cc1cc2cc(n1)-c1cnn(C)c1OCCC[C@@H](C)CN1/C(=N/C2=O)Nc2ccc(CN3CCN(C[C@@H]4CCN(c5cc(F)c([C@H]6CCC(=O)NC6=O)c(F)c5)C4)CC3)cc21` [Example 88, (R)-3-(2,6-difluoro-4-((S)-3-((4-(((R,E)-1^1,2^6,7-trimethyl-3-oxo-5^2,5^3-dihydro-1^1H,5^1H-1l-oxa-4-aza-5(2,1)-benzo[d]imidazola-2(2,4)-pyridina-1(4,5)-pyrazolacycloundecaphane-5^6-yl)methyl)piperazin-1-yl)methyl)pyrrolidin-1-yl)phenyl)piperidine-2,6-dione] yielded a DC50 of 1.5 nM and a Dmax of 78.5%.

As to `Cc1cc2cc(n1)-c1cnn(C)c1OCCC[C@@H](C)CN1/C(=N/C2=O)Nc2ccc(CN3CC4(CCN(CCc5cc(F)c([C@H]6CCC(=O)NC6=O)c(F)c5)CC4)C3)cc21` [Example 93, (R)-3-(2,6-difluoro-4-(2-(2-(((R,E)-1^1,2^6,7-trimethyl-3-oxo-5^2,5^3-dihydro-1^1H,5^1H-11-oxa-4-aza-5(2,1)-benzo[d]imidazola-2(2,4)-pyridina-1(4,5)-pyrazolacycloundecaphane-5^6-yl)methyl)-2,7-diazaspiro[3.5]nonan-7-yl)ethyl)phenyl)piperidine-2,6-dione], it took 1.9 nM to reach half-maximal degradation (DC50) and the greatest degradation seen (Dmax) stood at 92.7%.

Compound `Cc1cc2cc(n1)-c1cnn(C)c1OCCC[C@@H](C)CN1/C(=N/C2=O)Nc2ccc(CN3CCN(C[C@H]4CCN(c5cc(F)c([C@H]6CCC(=O)NC6=O)c(F)c5)C4)CC3)cc21` [Example 90, (R)-3-(2,6-difluoro-4-((R)-3-((4-(((R,E)-1^1,2^6,7-trimethyl-3-oxo-5^2,5^3-dihydro-^1H,5^1H-11-oxa-4-aza-5(2,1)-benzo[d]imidazola-2(2,4)-pyridina-1(4,5)-pyrazolacycloundecaphane-5^6-yl)methyl)piperazin-1-yl)methyl)pyrrolidin-1-yl)phenyl)piperidine-2,6-dione] gave a 50% degradation concentration (DC50) of 1.1 nM and a Dmax of 86.9%.

For the compound `Cc1cc2cc(n1)-c1cnn(C)c1OCCC[C@@H](C)CN1/C(=C/C2=O)Nc2ccc(CN3CCC(N4CCC(c5cc(F)c([C@H]6CCC(=O)NC6=O)c(F)c5)CC4)CC3)cc21` [Example 16, (R)-3-(2,6-difluoro-4-(1′-(((R,E)-1^1,2^6,7-trimethyl-3-oxo-5^2,5^3-dihydro-1^1H,5^1H-11-oxa-4-aza-5(2,1)-benzo[d]imidazola-2(2,4)-pyridina-1(4,5)-pyrazolacycloundecaphane-5^6-yl)methyl)-[1,4′-bipiperidin]-4-yl)phenyl)piperidine-2,6-dione], it took 10.6 nM to reach half-maximal degradation (DC50) and the Dmax was 82.1%.
